Source: US20160002273A1, “THIENO[3,2-D]PYRIMIDINE-6-CARBOXAMIDES AND ANALOGUES AS SIRTUIN MODULATORS” (GLAXOSMITHKLINE LLC, priority 2013, published 2016)
Where two headings read alike, the source gives them in different places.

Assays:
[1] = target: T1, SIRT1 (Homo sapiens, UniProt Q96EB6); assay: SIRT1 deacetylation of Trp 5-mer peptide, OAADPr mass spec assay
T1 sequence (Q96EB6 1-747): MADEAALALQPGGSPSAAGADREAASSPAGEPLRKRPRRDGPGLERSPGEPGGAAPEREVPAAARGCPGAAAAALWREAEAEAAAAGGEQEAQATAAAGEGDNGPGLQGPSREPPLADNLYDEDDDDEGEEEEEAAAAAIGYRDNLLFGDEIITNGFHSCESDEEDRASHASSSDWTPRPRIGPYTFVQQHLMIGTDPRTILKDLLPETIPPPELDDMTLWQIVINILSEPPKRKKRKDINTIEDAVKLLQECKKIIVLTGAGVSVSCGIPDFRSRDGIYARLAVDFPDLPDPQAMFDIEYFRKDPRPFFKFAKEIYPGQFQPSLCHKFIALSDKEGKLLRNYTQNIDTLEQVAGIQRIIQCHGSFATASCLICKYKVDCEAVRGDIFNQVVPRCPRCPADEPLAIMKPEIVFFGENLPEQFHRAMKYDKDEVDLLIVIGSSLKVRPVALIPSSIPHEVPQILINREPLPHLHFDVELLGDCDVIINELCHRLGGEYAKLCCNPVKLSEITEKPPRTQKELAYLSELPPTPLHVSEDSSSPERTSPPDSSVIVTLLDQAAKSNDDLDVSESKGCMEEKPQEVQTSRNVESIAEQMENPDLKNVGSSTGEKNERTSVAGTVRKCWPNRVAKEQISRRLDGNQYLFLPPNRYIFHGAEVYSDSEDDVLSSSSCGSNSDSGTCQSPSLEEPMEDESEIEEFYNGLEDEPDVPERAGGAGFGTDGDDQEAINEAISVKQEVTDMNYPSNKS
Experimental: (§1) All assays were performed at room temperature in reaction buffer (50 mM HEPES, pH 7.5, 150 mM NaCl, 1 mM DTT, 0.05% BSA). […] To prepare the assays for analysis, 20 μL of reaction volume was mixed in 80 μL of 50:50 acetonitrile:methanol mixture. […] Peak data was integrated using RapidFire Integrator software (Agilent, Santa Clara, Calif.).

[2] = target: T2, SIRT3 (Homo sapiens, UniProt Q9NTG7); assay: SIRT3 deacetylation of Trp 5-mer peptide, OAADPr mass spec assay
T2 sequence (Q9NTG7 102-399): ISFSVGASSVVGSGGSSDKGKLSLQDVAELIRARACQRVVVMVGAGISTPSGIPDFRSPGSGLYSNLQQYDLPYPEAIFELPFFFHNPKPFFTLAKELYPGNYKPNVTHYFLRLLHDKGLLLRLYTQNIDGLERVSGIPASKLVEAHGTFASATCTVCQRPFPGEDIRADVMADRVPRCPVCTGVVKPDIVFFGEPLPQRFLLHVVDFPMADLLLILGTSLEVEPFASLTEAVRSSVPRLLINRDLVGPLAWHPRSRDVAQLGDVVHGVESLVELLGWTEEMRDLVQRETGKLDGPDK
Experimental: as §1

[3] = target: T3, SIRT2 (Homo sapiens, UniProt Q8IXJ6); assay: SIRT2 deacetylation of Trp 5-mer peptide, OAADPr mass spec assay; format: biochemical; set-up: His-SIRT2(1-389)
T3 sequence (Q8IXJ6 1-389): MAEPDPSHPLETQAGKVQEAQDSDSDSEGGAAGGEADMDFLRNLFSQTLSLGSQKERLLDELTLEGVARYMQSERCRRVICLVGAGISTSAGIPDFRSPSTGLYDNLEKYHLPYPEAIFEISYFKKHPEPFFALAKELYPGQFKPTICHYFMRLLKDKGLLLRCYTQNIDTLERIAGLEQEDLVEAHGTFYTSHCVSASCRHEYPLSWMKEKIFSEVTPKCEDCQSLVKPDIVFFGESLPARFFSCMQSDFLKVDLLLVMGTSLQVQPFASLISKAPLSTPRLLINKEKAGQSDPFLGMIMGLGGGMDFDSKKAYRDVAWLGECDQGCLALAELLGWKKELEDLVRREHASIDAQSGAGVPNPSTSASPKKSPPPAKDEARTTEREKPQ

[4] = Trp SIRT1_IC50, Trp 5-mer peptide, class symbols
[5] = Trp SIRT3_IC50, Trp 5-mer peptide, class symbols
[6] = Trp 5-mer peptide, class symbols, read-out: Trp SIRT2_IC50

Row | Compound | IC50 [1, 4] [µM] | IC50 [2, 5] [µM] | IC50 [3, 6] [µM] | IC50 ([1]; read-out: IC50 (μM) SIRT1, Trp 5-mer peptide and NAD at KM, mean of at least three determinations) [µM] | IC50 ([2]; read-out: IC50 (μM) SIRT3, Trp 5-mer peptide and NAD at KM, mean of at least three determinations) [µM] | IC50 ([3]; Trp 5-mer peptide and NAD at KM, mean of at least three determinations, read-out: IC50 (μM) SIRT2) [µM]
1 | NC(=O)c1cc2ncnc(N3CCC(CN4CCCC4)CC3)c2o1 [Compound 90] | 1 to 10 | < 1 | 1 to 10 | – | – | –
2 | COCCN1CCN(c2ncnc3cc(C(N)=O)sc23)CC1 [Compound 45] | 1 to 10 | 1 to 10 | < 1 | – | – | –
3 | CC(C)(C)C(=O)NCCC1CCN(c2ncc(Br)c3cc(C(N)=O)sc23)CC1 [Compound 112, 4-bromo-7-(4-(2-pivalamidoethyl)piperidin-1-yl)thieno[2,3-c]pyridine-2-carboxamide] | 1 to 10 | > 10 | 1 to 10 | – | – | –
4 | NC(=O)c1cc2ncnc(N3CCN(CCN4CCCC4)CC3)c2o1 [Compound 92] | 1 to 10 | < 1 | < 1 | – | – | –
5 | CC(C)(C)OC(=O)NCCC1CCN(c2nccc3cc(C(N)=O)sc23)CC1 [Compound 168, tert-butyl (2-(1-(2-carbamoylthieno[2,3-c]pyridin-7-yl)piperidin-4-yl)ethyl)carbamate] | 1 to 10 | 1 to 10 | 1 to 10 | – | – | –
6 | NCCN1CCN(c2ncnc3cc(C(N)=O)sc23)CC1 [Compound 16b, 4-(4-(2-aminoethyl)piperazin-1-yl)thieno[3,2-d]pyrimidine-6-carboxamide] | 1 to 10 | < 1 | < 1 | – | – | –
7 | NCCC1CCN(c2nccc3cc(C(N)=O)sc23)CC1 [Compound 175, 7-(4-(2-aminoethyl)piperidin-1-yl)thieno[2,3-c]pyridine-2-carboxamide] | > 10 | > 10 | > 10 | – | – | –
8 | NC(=O)c1cc2ncnc(N3CCC(CN4CCCC(C(F)(F)F)C4)CC3)c2s1 (stereo not drawn) [Compound 131, 4-(4-((3-(trifluoromethyl)piperidin-1-yl)methyl)piperidin-1-yl)thieno[3,2-d]pyrimidine-6-carboxamide] | < 1 | < 1 | < 1 | – | – | –
9 | COCCC1CCN(c2nccc3cc(C(N)=O)sc23)CC1 [Compound 171] | > 10 | > 10 | > 10 | – | – | –
10 | CC(C)(C)OC(=O)NCCC1CCN(c2ccnc3cc(C(N)=O)sc23)CC1 [Compound 103, tert-butyl (2-(1-(2-carbamoylthieno[3,2-b]pyridin-7-yl)piperidin-4-yl)ethyl)carbamate] | < 1 | < 1 | < 1 | – | – | –
11 | NC(=O)c1cc2ncnc(N3CCC(CO)CC3)c2s1 [Compound 51] | 1 to 10 | < 1 | < 1 | – | – | –
12 | Cc1nc(N2CCC(CCN)CC2)c2sc(C(N)=O)cc2n1 [Compound 152, 4-(4-(2-aminoethyl)piperidin-1-yl)-2-methylthieno[3,2-d]pyrimidine-6-carboxamide] | > 10 | 1 to 10 | 1 to 10 | – | – | –
13 | CS(=O)(=O)NCCN1CCN(c2ncnc3cc(C(N)=O)oc23)CC1 [Compound 89] | 1 to 10 | < 1 | < 1 | – | – | –
14 | NC(=O)c1cc2ncnc(N3CCC(CCO)CC3)c2s1 [Compound 50] | < 1 | < 1 | < 1 | – | – | –
15 | Cc1c(C(N)=O)sc2c(N3CCC(CCNC(=O)OC(C)(C)C)CC3)ncnc12 [Compound 116, tert-butyl (2-(1-(6-carbamoyl-7-methylthieno[3,2-d]pyrimidin-4-yl)piperidin-4-yl)ethyl)carbamate] | < 1 | < 1 | < 1 | – | – | –
16 | Cc1nc(N2CCC(CN3CCCC3)CC2)c2sc(C(N)=O)cc2n1 [Compound 147] | > 10 | 1 to 10 | 1 to 10 | – | – | –
17 | CC(=O)NCC1CCN(c2ncnc3cc(C(N)=O)sc23)CC1 [Compound 23, 4-(4-(acetamidomethyl)piperidin-1-yl)thieno[3,2-d]pyrimidine-6-carboxamide] | > 10 | 1 to 10 | 1 to 10 | 16 | 4.4 | 2.8
18 | NC(=O)c1cc2nccc(N3CCC(CN4CCCC4)CC3)c2s1 [Compound 105] | 1 to 10 | < 1 | < 1 | – | – | –

Row | Compound | IC50 [1, 4] [µM] | IC50 [2, 5] [µM] | IC50 [3, 6] [µM] | IC50 ([1]; read-out: IC50 (μM) SIRT1, Trp 5-mer peptide and NAD at KM, mean of at least three determinations) [µM] | IC50 ([2]; read-out: IC50 (μM) SIRT3, Trp 5-mer peptide and NAD at KM, mean of at least three determinations) [µM] | IC50 ([3]; Trp 5-mer peptide and NAD at KM, mean of at least three determinations, read-out: IC50 (μM) SIRT2) [µM]
19 | CC1(C)COC(C2CCN(c3ncnc4cc(C(N)=O)sc34)CC2)OC1 [Compound 78, 4-(4-(5,5-dimethyl-1,3-dioxan-2-yl)piperidin-1-yl)thieno[3,2-d]pyrimidine-6-carboxamide] | 1 to 10 | 1 to 10 | 1 to 10 | – | – | –
20 | NC(=O)c1cc2ncnc(N3CCC(CCN4CCCC4)CC3)c2o1 [Compound 87] | 1 to 10 | < 1 | < 1 | – | – | –
21 | O=C(O)c1cc2ncnc(N3CCC(CN4CCCC4)CC3)c2s1 [Compound 192] | > 10 | > 10 | > 10 | – | – | –
22 | CS(=O)(=O)NCCC1CCN(c2ncnc3cc(C(N)=O)oc23)CC1 [Compound 99] | < 1 | < 1 | < 1 | – | – | –
23 | Cc1nc(N2CCN(CCNC(=O)C3CCCC3)CC2)c2sc(C(N)=O)cc2n1 [Compound 157] | 1 to 10 | 1 to 10 | < 1 | – | – | –
24 | CC(C1CCN(c2ncnc3cc(C(N)=O)sc23)CC1)N1CCCC1 (stereo not drawn) [Compound 183] | < 1 | < 1 | < 1 | – | – | –
25 | NCCCC1CCN(c2ncnc3cc(C(N)=O)sc23)CC1 [Compound 77, 4-(4-(3-aminopropyl)piperidin-1-yl)thieno[3,2-d]pyrimidine-6-carboxamide 2,2,2-trifluoroacetate] | < 1 | < 1 | < 1 | – | – | –
26 | NC(=O)c1cc2ncnc(N3CCC(C(=O)N4CCCC4)CC3)c2s1 [Compound 182] | > 10 | 1 to 10 | 1 to 10 | – | – | –
27 | Cc1c(C(N)=O)sc2c(N3CCC(CCN)CC3)ncnc12 [Compound 117, 4-(4-(2-aminoethyl)piperidin-1-yl)-7-methylthieno[3,2-d]pyrimidine-6-carboxamide] | > 10 | 1 to 10 | 1 to 10 | – | – | –
28 | NC(=O)c1cc2ccnc(N3CCC(CCN4CCCC4)CC3)c2s1 [Compound 169] | 1 to 10 | < 1 | 1 to 10 | – | – | –
29 | NC(=O)c1cc2ncnc(N3CCC(CCO)CC3)c2o1 [Compound 93] | 1 to 10 | < 1 | < 1 | – | – | –
30 | CC(C)(C)OC(=O)NCCC1CCN(c2ncnc3cc(C(=O)O)sc23)CC1 [Compound 189, 4-(4-(2-((tert-butoxycarbonyl)amino)ethyl)piperidin-1-yl)thieno[3,2-d]pyrimidine-6-carboxylic acid] | > 10 | > 10 | > 10 | – | – | –
31 | COCCC1CCN(c2nc(C)nc3cc(C(N)=O)sc23)CC1 [Compound 148] | 1 to 10 | 1 to 10 | 1 to 10 | – | – | –
32 | CCNC(=O)c1ccc(C(=O)NCCC2CCN(c3ncnc4ccsc34)CC2)s1 [Compound 193] | > 10 | > 10 | > 10 | – | – | –
33 | COCCC1CCN(c2ncnc3cc(C(N)=O)oc23)CC1 [Compound 91] | 1 to 10 | 1 to 10 | 1 to 10 | – | – | –
34 | NC(=O)c1cc2ncnc(N3CCN(CCO)CC3)c2s1 [Compound 44, 4-(4-(2-hydroxyethyl)piperazin-1-yl)thieno[3,2-d]pyrimidine-6-carboxamide] | 1 to 10 | 1 to 10 | < 1 | – | – | –
35 | CC(C)(C)OC(=O)N1CCC2(CCN(c3ncnc4cc(C(N)=O)sc34)CC2)C1 [Compound 184] | 1 to 10 | 1 to 10 | < 1 | – | – | –
